Assay results from US20190192697A1, “CHEMICAL PROBES OF LYSYL OXIDASK-LIKE 2 AND USES THEREOF” (PHARMAKEA, INC., priority 2016, published 2019).
Where a name gives a salt, the structure may show the parent alone.

target: T1, LOXL2 (Homo sapiens, UniProt Q9Y4K0); experiment: Erenna-based fluorescence magnetic bead assay for free/unbound LOXL2; format: binding; conditions: 34 nM Compound 1-2, 15 hours at room temperature
T1 sequence (Q9Y4K0 26-774): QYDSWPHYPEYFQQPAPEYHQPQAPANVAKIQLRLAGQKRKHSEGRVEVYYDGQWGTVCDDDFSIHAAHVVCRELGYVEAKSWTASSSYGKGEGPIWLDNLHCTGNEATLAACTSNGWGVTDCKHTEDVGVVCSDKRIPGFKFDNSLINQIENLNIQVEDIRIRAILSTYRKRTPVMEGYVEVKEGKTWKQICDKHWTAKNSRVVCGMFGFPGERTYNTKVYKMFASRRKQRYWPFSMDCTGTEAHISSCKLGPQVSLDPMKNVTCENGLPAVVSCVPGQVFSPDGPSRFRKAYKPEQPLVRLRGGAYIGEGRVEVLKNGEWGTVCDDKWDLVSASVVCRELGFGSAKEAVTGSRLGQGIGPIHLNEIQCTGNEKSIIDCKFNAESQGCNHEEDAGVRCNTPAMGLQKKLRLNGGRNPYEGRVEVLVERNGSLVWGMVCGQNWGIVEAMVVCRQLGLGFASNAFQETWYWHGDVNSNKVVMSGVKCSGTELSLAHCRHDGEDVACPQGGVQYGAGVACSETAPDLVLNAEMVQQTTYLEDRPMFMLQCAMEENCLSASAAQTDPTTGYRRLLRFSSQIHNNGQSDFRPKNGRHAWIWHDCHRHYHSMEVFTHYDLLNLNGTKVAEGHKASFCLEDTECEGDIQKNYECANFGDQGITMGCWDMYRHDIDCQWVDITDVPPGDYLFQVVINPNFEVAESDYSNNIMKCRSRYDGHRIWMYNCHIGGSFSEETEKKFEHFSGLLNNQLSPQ
Method: Following the incubation, 10 μg of streptavidin-coated magnetic microparticles (MPs) are added to each well and incubated for 30 min-2 hours at room temperature with shaking. The MPs are washed once using magnetic separation and 20 μL of a fluorescently conjugated anti-LOXL2 antibody is added to each well (for example, R&D Systems anti-LOXL2 Goat IgG polyclonal antibody conjugated to AlexaFluor 647) and incubated for 30 min-2 hours at room temperature with shaking. The MPs are washed four times with magnetic separation and transferred to a new plate. All liquid is aspirated from the plate and elution buffer added and incubated for 10 minutes at room temperature with shaking. The eluate is transferred to a 384 well assay plate containing neutralization buffer, sealed and read on Erenna®.

Row | Structure (SMILES) | signal of free/unbound LOXL2 versus LOXL2 concentration
1 | Cl.NCc1cc(Oc2cccc(C(=O)NCCOCCOCCOCCOCCOCCOCCOCCOCCOCCOCCOCCNC(=O)CCCC[C@@H]3SC[C@@H]4NC(=O)N[C@@H]43)c2)nc(C(F)(F)F)c1 [Compound 1-2, 3-((4-(Aminomethyl)-6-(trifluoromethyl)pyridin-2-yl)oxy)-N-(37-oxo-41-((3aS,4S,6aR)-2-oxohexahydro-1H-thieno[3,4-d]imidazol-4-yl)-3,6,9,12,15,18,21,24,27,30,33-undecaoxa-36-azahentetracontyl)benzamide hydrochloride] | linear increase in signal of free/unbound LOXL2 up to 500 pg/mL

system: not listed separately; experiment: Compound tissue distribution studies with 18F-PET imaging; format: in vivo; conditions: 30-50 μCi intravenously, PET imaged 90-120 minutes, naïve or bleomycin-instilled mice
Method: In these studies, naïve or bleomycin-instilled mice were injected with 30-50 μCi of Compound 1-13 (^18F-labeled) intravenously and were PET imaged for 90-120 minutes following injection of the radiolabel. These animals were then sacrificed at 2.5 hours post-administration of the ^18F-labeled Compound 1-13 and tissues and blood were analyzed by scintillation counting to determine concentration of radioactivity remaining.
To determine specific binding, a subset of mice were administered a blocking dose of Compound 1-13a or vehicle (delivered at 60 mg/kg PO) at a suitable time point prior to the PET-ligand injection, such as 2.5-4 h prior.

Row | Structure (SMILES) | tissue distribution of the 18F-labeled ligand
2 | NCc1cc(Oc2cccc(C(=O)N3C[C@@H](O)[C@H]([18F])C3)c2)nc(C(F)(F)F)c1 [Compound 1-13, (3-((4-(Aminomethyl)-6-(trifluoromethyl)pyridin-2-yl)oxy)phenyl)((3R,4R)-3-^18fluoro-4-hydroxypyrrolidin-1-yl)methanone hydrochloride] | Highest initial concentrations of ligand were observed in liver, kidney and lung

target: T1, LOXL2; experiment: Human LOXL2 amine oxidase activity assay (Amplex Red); format: biochemical; parameters: expressed in transfected cells; host or cells: CHO cells stably expressing human LOXL2; 10-20x concentrated conditioned media; conditions: concentrated conditioned media from CHO cells expressing human LOXL2; 2 h at 37° C. pre-incubation
Method: LOXL2 amine oxidase activity is evaluated by measuring Amplex Red fluorescence using 10-20× concentrated conditioned media from CHO cells stably expressing human LOXL2. To assay for amine oxidase activity, 10 μL of the concentrated conditioned media is incubated with 2 μL of test compound in DMSO and 73 μL Assay Buffer (50 mM Borate Buffer, pH8) for 2 h at 37° C. After the 2 h incubation, 5 μL of 10 mM 1,5-diaminopentane (DAP) diluted in Assay Buffer and 10 μL of Amplex Red Mix (8.5 μL Assay Buffer+0.5 μL of 10 mM Amplex Red+1 μL of 500 U/mL Horseradish Peroxidase) are added and the plate mixed and immediately placed on the FlexStaion for fluorescence measurements. Fluorescence is read in kinetic mode every 2 min for 1 hour at excitation=544 nm and emission=590 nm. The amine oxidase activity is calculated from the slope of the linear portion of the curve.

Row | Structure (SMILES) | IC50 [nM]
3 | NCc1cc(Oc2cccc(C(=O)NCCCCCNC(=O)CCCC[C@@H]3SC[C@@H]4NC(=O)N[C@@H]43)c2)nc(C(F)(F)F)c1 [Compound 1-1, 3-((4-(Aminomethyl)-6-(trifluoromethyl)pyridin-2-yl)oxy)-N-(5-(5-((3aS,4S,6aR)-2-oxohexahydro-1H-thieno[3,4-d]imidazol-4-yl)pentanamido)pentyl)benzamide hydrochloride] | < 300
4 | Cl.NCc1cc(Oc2cccc(C(=O)NCCOCCOCCOCCOCCOCCOCCOCCOCCOCCOCCOCCNC(=O)CCCC[C@@H]3SC[C@@H]4NC(=O)N[C@@H]43)c2)nc(C(F)(F)F)c1 [Compound 1-2, 3-((4-(Aminomethyl)-6-(trifluoromethyl)pyridin-2-yl)oxy)-N-(37-oxo-41-((3aS,4S,6aR)-2-oxohexahydro-1H-thieno[3,4-d]imidazol-4-yl)-3,6,9,12,15,18,21,24,27,30,33-undecaoxa-36-azahentetracontyl)benzamide hydrochloride] | < 300
5 | CN1/C(=C/C=C/C2=[N+](CCCCCC(=O)NCCCn3cc(CCCCNC(=O)c4cccc(Oc5cc(CN)cc(C(F)(F)F)n5)c4)nn3)c3ccccc3C2(C)C)C(C)(C)c2ccccc21 [Compound 1-3, 1-(6-((3-(4-(4-(3-((4-(Aminomethyl)-6-(trifluoromethyl)pyridin-2-yl)oxy)benzamido)butyl)-1H-1,2,3-triazol-1-yl)propyl)amino)-6-oxohexyl)-3,3-dimethyl-2-((1E,3E)-3-(1,3,3-trimethylindolin-2-ylidene)prop-1-en-1-yl)-3H-indol-1-ium chloride hydrochloride] | < 300
6 | CN1/C(=C/C=C/C=C/C2=[N+](CCCCCC(=O)NCCCn3cc(CCCCNC(=O)c4cccc(Oc5cc(CN)cc(C(F)(F)F)n5)c4)nn3)c3ccccc3C2(C)C)C(C)(C)c2ccccc21 [Compound 1-4, 1-(6-((3-(4-(4-(3-((4-(Aminomethyl)-6-(trifluoromethyl)pyridin-2-yl)oxy)benzamido)butyl)-1H-1,2,3-triazol-1-yl)propyl)amino)-6-oxohexyl)-3,3-dimethyl-2-((1E,3E,5E)-5-(1,3,3-trimethylindolin-2-ylidene)penta-1,3-dien-1-yl)-3H-indol-1-ium chloride hydrochloride] | < 300
7 | Cc1cc(=O)oc2cc(NC(=O)c3cccc(Oc4cc(CN)cc(C(F)(F)F)n4)c3)ccc12 [Compound 1-5, 3-((4-(Aminomethyl)-6-(trifluoromethyl)pyridin-2-yl)oxy)-N-(4-methyl-2-oxo-2H-chromen-7-yl)benzamide hydrochloride] | < 300
8 | CN(C)c1cccc2c(S(=O)(=O)Nc3cccc(Oc4cc(CN)cc(C(F)(F)F)n4)c3)cccc12 [Compound 1-6, N-(3-((4-(Aminomethyl)-6-(trifluoromethyl)pyridin-2-yl)oxy)phenyl)-5-(dimethylamino)naphthalene-1-sulfonamide hydrochloride] | 300 to 1000
9 | NCc1cc(Oc2cccc(C(=O)NCCOCCOCCOCCNC(=O)CCCC[C@@H]3SC[C@@H]4NC(=O)N[C@@H]43)c2)nc(C(F)(F)F)c1 [Compound 1-19, 3-((4-(Aminomethyl)-6-(trifluoromethyl)pyridin-2-yl)oxy)-N-(13-oxo-17-((3aS,4S,6aR)-2-oxohexahydro-1H-thieno[3,4-d]imidazol-4-yl)-3,6,9-trioxa-12-azaheptadecyl)benzamide hydrochloride] | < 300
10 | NCc1cc(Oc2cccc(C(=O)NCCNC(=O)CCCCCNC(=O)CCCCCNC(=O)CCCC[C@@H]3SC[C@@H]4NC(=O)N[C@@H]43)c2)nc(C(F)(F)F)c1 [Compound 1-20, 3-((4-(Aminomethyl)-6-(trifluoromethyl)pyridin-2-yl)oxy)-N-(2-(6-(6-(5-((3aS,4S,6aR)-2-oxohexahydro-1H-thieno[3,4-d]imidazol-4-yl)pentanamido)hexanamido)hexanamido)ethyl)benzamide hydrochloride] | < 300
11 | CC1(C)C(/C=C/C(=C/C=C2\N(CCCS(=O)(=O)O)c3ccc4c(S(=O)(=O)O)cc(S(=O)(=O)O)cc4c3C2(C)C)c2cccc(CCCCC(=O)NCCCCCCNC(=O)c3cccc(Oc4cc(CN)cc(C(F)(F)F)n4)c3)c2)=[N+](CCCS(=O)(=O)O)c2ccc3c(S(=O)(=O)O)cc(S(=O)(=O)O)cc3c21 [Compound 1-22, 3-(2-((1E,3Z,5Z)-3-(3-(5-((6-(3-((4-(Aminomethyl)-6-(trifluoromethyl)pyridin-2-yl)oxy)benzamido)hexyl)amino)-5-oxopentyl)phenyl)-5-(1,1-dimethyl-6,8-disulfo-3-(3-sulfopropyl)-1H-benzo[e]indol-2(3H)-ylidene)penta-1,3-dien-1-yl)-1,1-dimethyl-6,8-disulfo-1H-benzo[e]indol-3-ium-3-yl)propane-1-sulfonate trifluoroacetate] | > 1000
